In general, IC50 refers to the concentration at which inhibition is half-maximal. A higher IC50 goes with lower potency.

The target of experiment [1] is JMJD2C (Homo sapiens (Human), UniProt Q9H3R0). Kind of experiment: In vitro enzyme inhibition assay for JMJD2C activity (TR-FRET). The format is biochemical. The method in brief:
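Demethylation product H3K9me2 quantified by TR-FRET ratio 665/615 after EDTA stop and 1 h with Eu-anti-H3K9me2 and streptavidin-APC; IC50 by curve fit. Reaction: 0.3 nM JMJD2C (AA 2-372, baculovirus), 2 μM α-ketoglutarate, 300 nM biotin-H3K9me3 peptide, pH 7.3 HEPES with Fe(II)/ascorbate, 30 min room temperature.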
For orientation: In TR-FRET formats the signal depends on donor and acceptor labels being close together.

For experiment [2], the system named is KYSE-150 esophageal carcinoma cell line. Kind of experiment: In vitro cell-based assay: cellular proliferation via BrdU incorporation (ELISA). Also noted: species or system human. The following applies: Homo sapiens, KYSE-150, 168 hours compound incubation. The method in brief: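 BrdU incorporation during S-phase, detected colorimetrically at 450 nm by peroxidase ELISA, measured proliferation after 168 h compound exposure.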
On the technique in general: Uptake of a labelled nucleoside into DNA is a usual measure of proliferation.

Some results are limits rather than exact numbers.

Sequence of JMJD2C (Q9H3R0 2-372): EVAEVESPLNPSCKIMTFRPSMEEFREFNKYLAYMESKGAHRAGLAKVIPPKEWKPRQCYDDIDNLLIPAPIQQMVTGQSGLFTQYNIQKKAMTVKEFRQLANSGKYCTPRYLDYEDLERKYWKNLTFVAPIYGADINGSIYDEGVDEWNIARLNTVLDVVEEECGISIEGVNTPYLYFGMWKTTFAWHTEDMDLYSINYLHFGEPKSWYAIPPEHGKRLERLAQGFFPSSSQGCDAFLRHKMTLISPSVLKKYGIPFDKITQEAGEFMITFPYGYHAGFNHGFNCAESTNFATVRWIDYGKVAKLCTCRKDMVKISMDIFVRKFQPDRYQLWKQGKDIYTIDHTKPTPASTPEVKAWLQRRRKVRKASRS

Turning to `CN(CC1CC1)c1ccc2c(c1)CCC[C@H]2CNc1cnccc1C(=O)O` [Example 120, 3-({[(1R)-6-[(cyclopropylmethyl)(methyl)amino]-1,2,3,4-tetrahydronaphthalen-1-yl]methyl}amino)pyridine-4-carboxylic acid], the IC50 in experiment [1] and in experiment [2] was 0.1 to 1 µM each time.
Consider `O=C(O)c1ccncc1NCC1CCCc2cc(N3CCc4ccccc43)ccc21` (centres unmarked) [Example 5, 3-({[6-(2,3-dihydro-1H-indol-1-yl)-1,2,3,4-tetrahydronaphthalen-1-yl]methyl}amino)pyridine-4-carboxylic acid], for which the IC50 was 1 to 10 µM in experiment [1] and 0.1 to 1 µM in experiment [2].
On the same counts, the results for `CN(c1ccc(-n2cccn2)cc1)c1ccc2c(c1)CCC[C@H]2CNc1cnccc1C(=O)O` [Example 188, 3-({[(1R)-6-{methyl[4-(1H-pyrazol-1-yl)phenyl]amino}-1,2,3,4-tetrahydronaphthalen-1-yl]methyl}amino)pyridine-4-carboxylic acid] are 0.1 to 1 µM and at most 0.1 µM.
For `CCOc1ccc(N(C)c2ccc3c(c2)OCC[C@H]3CNc2cnccc2C(=O)O)cc1` [Example 186, 3-({[(4R)-7-[(4-ethoxyphenyl)(methyl)amino]-3,4-dihydro-2H-1-benzopyran-4-yl]methyl}amino)pyridine-4-carboxylic acid], the IC50 in experiment [1] was 0.1 to 1 µM; in experiment [2] it was at most 0.1 µM.
Consider `CN(c1cccc(C#N)c1)c1ccc2c(c1)CCC[C@H]2CNc1cnccc1C(=O)O` [Example 115, 3-({[(1R)-6-[(3-cyanophenyl)(methyl)amino]-1,2,3,4-tetrahydronaphthalen-1-yl]methyl}amino)pyridine-4-carboxylic acid], for which the IC50 in experiment [1] and in experiment [2] was 0.1 to 1 µM in each case.
Take `COc1ccccc1-c1ccc2c(c1)OCC[C@H]2CNc1cnccc1C(=O)O` [Example 116, 3-({[(4R)-7-(2-methoxyphenyl)-3,4-dihydro-2H-1-benzopyran-4-yl]methyl}amino)pyridine-4-carboxylic acid]: the IC50 in experiment [1] and in experiment [2] was 0.1 to 1 µM throughout.
Consider `CN(c1ccc2c(c1)OCC[C@H]2CNc1cnccc1C(=O)O)c1ccc2ccoc2c1` [Example 141, 3-({[(4R)-7-[(1-benzofuran-6-yl)(methyl)amino]-3,4-dihydro-2H-1-benzopyran-4-yl]methyl}amino)pyridine-4-carboxylic acid], for which the IC50 in experiment [1] and in experiment [2] was 0.1 to 1 µM in each case.
As to `CN(c1ccccc1)c1ccc2c(c1)CCOC2CNc1cnccc1C(=O)O` (centres unmarked) [Example 146, 3-[({6-[methyl(phenyl)amino]-3,4-dihydro-1H-2-benzopyran-1-yl}methyl)amino]pyridine-4-carboxylic acid], the IC50 in experiment [1] was 0.1 to 1 µM; in experiment [2], at most 0.1 µM.
With `CC(C)C#Cc1ccc2c(c1)OCCC2CNc1cnccc1C(=O)O` (centres unmarked) [Example 38, 3-({[7-(3-methylbut-1-yn-1-yl)-3,4-dihydro-2H-1-benzopyran-4-yl]methyl}amino)pyridine-4-carboxylic acid], the IC50 was 0.1 to 1 µM in experiment [1] and over 10 µM in experiment [2].
On the same counts, the results for `O=C(O)c1ccncc1NCC1CCCc2cc(N3CCCC3=O)ccc21` (centres unmarked) [Example 3, 3-({[6-(2-oxopyrrolidin-1-yl)-1,2,3,4-tetrahydronaphthalen-1-yl]methyl}amino)pyridine-4-carboxylic acid] are 0.1 to 1 µM and over 10 µM.
For the molecule `CN(c1ccc(Cl)cc1)c1ccc2c(c1)CCC[C@H]2CNc1cnccc1C(=O)O` [Example 9, 3-({[(1R)-6-[(4-chlorophenyl)(methyl)amino]-1,2,3,4-tetrahydronaphthalen-1-yl]methyl}amino)pyridine-4-carboxylic acid], the half-maximal inhibitory concentration (IC50) in experiment [1] is 1 to 10 µM; in experiment [2], at most 0.1 µM.
As to `O=C(O)c1ccncc1NCC1CCOc2cc(Nc3ccccc3)ccc21` (centres unmarked) [Example 15, 3-({[7-(phenylamino)-3,4-dihydro-2H-1-benzopyran-4-yl]methyl}amino)pyridine-4-carboxylic acid], the figures for the IC50 in experiment [1] and in experiment [2] were 0.1 to 1 µM and 1 to 10 µM, respectively.
On the same counts, the results for `CN(c1ccc(C2=CCOCC2)cc1)c1ccc2c(c1)OCC[C@H]2CNc1cnccc1C(=O)O` [Example 201, 3-({[(4R)-7-{[4-(3,6-dihydro-2H-pyran-4-yl)phenyl](methyl)amino}-3,4-dihydro-2H-1-benzopyran-4-yl]methyl}amino)pyridine-4-carboxylic acid] are 0.1 to 1 µM and at most 0.1 µM.
On the same counts, the results for `O=C(O)c1ccncc1NCC1OCCc2ccccc21` (centres unmarked) [Example 142, 3-[(3,4-dihydro-1H-2-benzopyran-1-ylmethyl)amino]pyridine-4-carboxylic acid] are 0.1 to 1 µM and over 10 µM.
On the same counts, the results for `O=C(O)c1ccncc1NCC1CCCc2cc(N3CCCc4ccccc43)ccc21` (centres unmarked) [Example 4, 3-({[6-(1,2,3,4-tetrahydroquinolin-1-yl)-1,2,3,4-tetrahydronaphthalen-1-yl]methyl}amino)pyridine-4-carboxylic acid] are 1 to 10 µM and 0.1 to 1 µM.
As to `COc1ccccc1N(C)c1ccc2c(c1)CCC[C@H]2CNc1cnccc1C(=O)O` [Example 172, 3-({[(1R)-6-[(2-methoxyphenyl)(methyl)amino]-1,2,3,4-tetrahydronaphthalen-1-yl]methyl}amino)pyridine-4-carboxylic acid], the IC50 in experiment [1] and in experiment [2] was 0.1 to 1 µM in each case.
As to `CCCOc1ccc2c(c1)CCCC2CNc1cnccc1C(=O)O` (centres unmarked) [Example 59, 3-{[(6-propoxy-1,2,3,4-tetrahydronaphthalen-1-yl)methyl]amino}pyridine-4-carboxylic acid], the IC50 in experiment [1] is 0.1 to 1 µM; in experiment [2], 1 to 10 µM.
On the same counts, the results for `CCCOc1ccc(N(C)c2ccc3c(c2)OCC[C@H]3CNc2cnccc2C(=O)O)cc1` [Example 212, 3-({[(4R)-7-[methyl(4-propoxyphenyl)amino]-3,4-dihydro-2H-1-benzopyran-4-yl]methyl}amino)pyridine-4-carboxylic acid] are 0.1 to 1 µM and at most 0.1 µM.
On the same counts, the results for `Cc1cccc(-c2ccc3c(c2)OCC[C@H]3CNc2cnccc2C(=O)O)c1` [Example 30, 3-({[(4R)-7-(3-methylphenyl)-3,4-dihydro-2H-1-benzopyran-4-yl]methyl}amino)pyridine-4-carboxylic acid] are 0.1 to 1 µM and 0.1 to 1 µM.
On the same counts, the results for `Cc1ccc(S(=O)(=O)c2ccc3c(c2)CCC[C@H]3CNc2cnccc2C(=O)O)cc1` [Example 84, 3-({[(1R)-6-(4-methylbenzenesulfonyl)-1,2,3,4-tetrahydronaphthalen-1-yl]methyl}amino)pyridine-4-carboxylic acid] are 0.1 to 1 µM and over 10 µM.
`CN(c1ccc2c(c1)CCC2)c1ccc2c(c1)OCC[C@H]2CNc1cnccc1C(=O)O` [Example 131, 3-({[(4R)-7-[(2,3-dihydro-1H-inden-5-yl)(methyl)amino]-3,4-dihydro-2H-1-benzopyran-4-yl]methyl}amino)pyridine-4-carboxylic acid]: the IC50 in experiment [1] was 0.1 to 1 µM; in experiment [2] it was at most 0.1 µM.
On the same counts, the results for `CN(c1ccc(OCC(F)(F)F)cc1)c1ccc2c(c1)OCC[C@H]2CNc1cnccc1C(=O)O` [Example 214, 3-({[(4R)-7-{methyl[4-(2,2,2-trifluoroethoxy)phenyl]amino}-3,4-dihydro-2H-1-benzopyran-4-yl]methyl}amino)pyridine-4-carboxylic acid] are 0.1 to 1 µM and at most 0.1 µM.
On the same counts, the results for `O=C(O)c1ccncc1NC[C@@H]1CCCc2cc(Sc3ccccc3F)ccc21` [Example 73, 3-({[(1R)-6-[(2-fluorophenyl)sulfanyl]-1,2,3,4-tetrahydronaphthalen-1-yl]methyl}amino)pyridine-4-carboxylic acid] are 0.1 to 1 µM and 0.1 to 1 µM.
On the same counts, the results for `CN(c1cccnc1)c1ccc2c(c1)CCC[C@H]2CNc1cnccc1C(=O)O` [Example 12, 3-({[(1R)-6-[methyl(pyridin-3-yl)amino]-1,2,3,4-tetrahydronaphthalen-1-yl]methyl}amino)pyridine-4-carboxylic acid] are at most 0.1 µM and 0.1 to 1 µM.
For the molecule `Cc1cccc(N(C)c2ccc3c(c2)OCC[C@H]3CNc2cnccc2C(=O)O)n1` [Example 148, 3-({[(4R)-7-[methyl(6-methylpyridin-2-yl)amino]-3,4-dihydro-2H-1-benzopyran-4-yl]methyl}amino)pyridine-4-carboxylic acid], the IC50 in experiment [1] and in experiment [2] was 0.1 to 1 µM each time.
For the molecule `COc1cc2c(c(OC)c1)C(CNc1cnccc1C(=O)O)CCC2` (centres unmarked) [Example 95, 3-{[(6,8-dimethoxy-1,2,3,4-tetrahydronaphthalen-1-yl)methyl]amino}pyridine-4-carboxylic acid], the IC50 in experiment [1] is 0.1 to 1 µM; in experiment [2] it was over 10 µM.
On the same counts, the results for `COc1ccc(N(C)c2ccc3c(c2)CCC[C@H]3CNc2cnccc2C(=O)O)cc1` [Example 177, 3-({[(1R)-6-[(4-methoxyphenyl)(methyl)amino]-1,2,3,4-tetrahydronaphthalen-1-yl]methyl}amino)pyridine-4-carboxylic acid] are 0.1 to 1 µM and at most 0.1 µM.
On the same counts, the results for `COc1cc2c(cc1F)[C@H](CNc1cnccc1C(=O)O)CCC2` [Example 97, 3-({[(1R)-7-fluoro-6-methoxy-1,2,3,4-tetrahydronaphthalen-1-yl]methyl}amino)pyridine-4-carboxylic acid] are 0.1 to 1 µM and 1 to 10 µM.
